From patent US8763410B2, “Method and apparatus for the dissolution and filtration of a hyperpolarized agent with a neutral dissolution media” (General Electric Company, priority 2008, dated 2014)

How the values were obtained:
[1] = Measure of pH and EPA residual after neutral (water) dissolution and size exclusion filtration; settings: 22 g water 130° C., 250 psi; receiver 10 g of 360 mM NaOH, 200 mM TRIS, 268 μM EDTA; two 20 μm frits
Procedure: A fluid path syringe was filled with 22 g of 18.2 MΩcm water and 10 g of 360 mM NaOH, 200 mM TRIS and 268 μM EDTA was placed in the fluid path receiver. A mixture of ^12C pyruvic acid and EPA were in the approximate ratio of 53:1 was placed in the sample container of the fluid path. The water in the syringe was heated to 130° C. and was pressurized to 250 psi. The filter body was filled with two frits used as particle size exclusion filters (Varian, part number 12131043, 1.5″ diameter, average pore size 20 μm).

[2] = pH-solubility profile of the EPA; assay type: physicochemical
Source text: In an exemplary embodiment of the invention sterile deionized water is placed in the syringe of the sterile fluid path (SFP), a sample of ^13CPA mixed with EPA is placed in the sample container and NaOH, TRIS, and EDTA are placed in the receiver. Size exclusion filters are placed in the filter cartridge. In this embodiment, the pH-solubility profile of the EPA is considered.

Molecule | pH of resulting solution in the receiver [1] | solubility in aqueous solutions ([2]; above pH 4) | particulate diameter ([2]; pH less than 4) | solubility in aqueous solution ([2]; pH less than 4)
CC(=O)C(=O)O [^12C pyruvic acid] | 7.97 |  |  | 
tris {8-carboxyl-2,2,6,6-tetra[2-(1-methoxyethyl)]-benzo(1,2-d:4,5-d′)bis(1,3)dithiole-4-yl}methyl sodium salt [EPA] |  | soluble | greater than or equal to 10 microns | predominantly insoluble
